Measured values from ChEMBL document CHEMBL1147799, “An integrated in silico 3D model-driven discovery of a novel, potent, and selective amidosulfonamide 5-HT1A agonist (PRX-00023) for the treatment of anxiety and depression” (J Med Chem, 2006).
The source made the active and inactive calls. The calls are words filed in the database; no cut-off is given here.

Tests used:
Dopamine receptor = assay: Binding affinity to dopamine receptor by radioligand binding assay; format: protein assay
[1] = Binding affinity to vasopressin receptor by radioligand binding assay
[2] = Half life in human liver microsome at 5 uM; format: ADME; conditions: liver microsomes
[3] = target: T1, Alpha-2A adrenergic receptor (Rattus norvegicus) (UniProt P22909); assay: Displacement of [3H]RX 821002 from Adrenergic alpha-2a receptor in rat cerebral cortex cells at 1 uM; format: cell-based
T1 sequence (whole entry): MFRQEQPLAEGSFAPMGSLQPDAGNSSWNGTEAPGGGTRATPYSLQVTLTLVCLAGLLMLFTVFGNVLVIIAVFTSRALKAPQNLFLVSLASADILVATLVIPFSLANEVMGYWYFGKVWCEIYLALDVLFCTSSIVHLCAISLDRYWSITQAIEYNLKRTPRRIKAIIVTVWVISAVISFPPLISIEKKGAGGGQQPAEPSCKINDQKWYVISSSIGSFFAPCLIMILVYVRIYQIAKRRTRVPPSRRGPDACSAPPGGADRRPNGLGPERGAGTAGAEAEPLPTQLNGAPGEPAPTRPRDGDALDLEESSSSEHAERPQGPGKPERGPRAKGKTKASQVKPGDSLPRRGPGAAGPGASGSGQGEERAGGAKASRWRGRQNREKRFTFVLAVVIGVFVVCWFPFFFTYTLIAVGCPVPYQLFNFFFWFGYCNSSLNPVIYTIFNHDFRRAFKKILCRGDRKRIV

[4] = target: 5-hydroxytryptamine receptor 1B (Rattus norvegicus, UniProt P28564); assay: Binding affinity to 5HT1B receptor in rat cerebral cortex by radioligand binding assay; format: tissue-based
Chain of 5-hydroxytryptamine receptor 1B (P28564 whole entry): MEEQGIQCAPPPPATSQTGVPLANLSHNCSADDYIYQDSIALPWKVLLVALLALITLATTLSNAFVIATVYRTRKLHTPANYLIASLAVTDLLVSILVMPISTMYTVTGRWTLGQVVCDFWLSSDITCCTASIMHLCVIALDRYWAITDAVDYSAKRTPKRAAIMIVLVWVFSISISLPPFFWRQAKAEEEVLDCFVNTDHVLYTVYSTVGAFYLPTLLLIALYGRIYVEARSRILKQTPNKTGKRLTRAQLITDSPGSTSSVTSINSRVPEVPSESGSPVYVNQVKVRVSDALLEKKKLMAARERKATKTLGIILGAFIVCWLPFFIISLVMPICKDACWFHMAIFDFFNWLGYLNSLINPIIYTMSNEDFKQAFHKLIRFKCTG

[5] = Binding affinity to galanin receptor by radioligand binding assay
Cholecystokinin receptor = Cholecystokinin receptor (Homo sapiens, UniProt P32239+P32238); assay: Binding affinity to cholecystokinin receptor by radioligand binding assay; format: protein assay
Cytochrome P450 1A2 = Cytochrome P450 1A2 (Homo sapiens, UniProt P05177); assay: Inhibition of human recombinant cytochrome P450 1A2; format: ADME; conditions: recombinant enzyme
Chain of Cytochrome P450 1A2 (P05177 whole entry): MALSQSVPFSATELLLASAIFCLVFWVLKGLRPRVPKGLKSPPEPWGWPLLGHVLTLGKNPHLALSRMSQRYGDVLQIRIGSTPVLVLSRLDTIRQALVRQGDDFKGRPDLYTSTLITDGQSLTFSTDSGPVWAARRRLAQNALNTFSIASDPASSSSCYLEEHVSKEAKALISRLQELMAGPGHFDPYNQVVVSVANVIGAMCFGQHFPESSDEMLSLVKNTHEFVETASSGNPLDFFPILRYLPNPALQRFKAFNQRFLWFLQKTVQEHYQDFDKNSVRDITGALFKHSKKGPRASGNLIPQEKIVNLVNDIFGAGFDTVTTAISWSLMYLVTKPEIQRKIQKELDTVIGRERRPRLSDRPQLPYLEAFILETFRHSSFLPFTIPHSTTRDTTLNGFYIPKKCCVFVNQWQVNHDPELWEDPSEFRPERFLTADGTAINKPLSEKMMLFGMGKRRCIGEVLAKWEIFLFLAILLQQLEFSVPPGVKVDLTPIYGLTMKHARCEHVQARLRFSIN

[6] = Half life in Sprague-Dawley rat at 3 mg/kg, po; format: ADME, organism-based; design: dose 3 mg/kg, route oral; conditions: in vivo
[7] = Half life in Beagle dog at 3 mg/kg, po; format: ADME, organism-based, Canis lupus familiaris; design: dose 3 mg/kg, route oral; conditions: in vivo
Homo sapiens = species: Homo sapiens; assay: Transient increase in prolactin level in human serum at greater than 30 mg; format: functional, organism-based
[8] = target: 5-hydroxytryptamine receptor 5A (Homo sapiens, UniProt P47898); assay: Binding affinity to human 5HT5A receptor by radioligand binding assay
Chain of 5-hydroxytryptamine receptor 5A (P47898 whole entry): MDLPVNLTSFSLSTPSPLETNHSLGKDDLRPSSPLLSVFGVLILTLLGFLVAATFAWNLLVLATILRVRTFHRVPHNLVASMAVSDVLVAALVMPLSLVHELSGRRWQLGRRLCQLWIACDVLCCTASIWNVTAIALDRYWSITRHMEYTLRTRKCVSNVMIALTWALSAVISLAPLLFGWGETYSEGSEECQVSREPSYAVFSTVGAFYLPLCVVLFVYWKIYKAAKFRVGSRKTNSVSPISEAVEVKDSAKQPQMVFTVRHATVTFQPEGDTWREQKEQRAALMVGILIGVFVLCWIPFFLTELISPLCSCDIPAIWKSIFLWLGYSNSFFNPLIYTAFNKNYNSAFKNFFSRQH

[9] = Binding affinity to chloride channel by radioligand binding assay
Cytochrome P450 2C9 = Cytochrome P450 2C9 (Homo sapiens, UniProt P11712); assay: Inhibition of human recombinant cytochrome P450 2C9; format: ADME; conditions: recombinant enzyme
Chain of Cytochrome P450 2C9 (P11712 whole entry): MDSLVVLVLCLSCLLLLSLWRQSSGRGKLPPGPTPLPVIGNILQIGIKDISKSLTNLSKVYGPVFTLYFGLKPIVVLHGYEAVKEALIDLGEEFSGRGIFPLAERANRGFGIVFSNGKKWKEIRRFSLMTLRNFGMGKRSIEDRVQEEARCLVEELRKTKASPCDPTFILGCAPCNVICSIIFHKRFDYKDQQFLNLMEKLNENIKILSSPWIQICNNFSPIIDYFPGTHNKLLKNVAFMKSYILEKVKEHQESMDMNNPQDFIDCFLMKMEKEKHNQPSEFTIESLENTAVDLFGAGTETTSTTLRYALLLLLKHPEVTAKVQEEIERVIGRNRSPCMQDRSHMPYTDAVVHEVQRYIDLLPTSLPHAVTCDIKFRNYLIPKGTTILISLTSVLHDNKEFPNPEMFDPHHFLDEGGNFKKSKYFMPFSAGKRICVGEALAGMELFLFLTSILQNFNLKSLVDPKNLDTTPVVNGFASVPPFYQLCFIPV

Mus musculus = assay: Decrease in stress-induced hyperthermia in 129S6/SvEvTac mouse at 20 mg/kg, po; format: functional, organism-based; design: dose 20 mg/kg
[10] = Terminal half life in human; format: ADME, organism-based; conditions: in vivo
[11] = target: Adrenergic receptor alpha-1 (Rattus norvegicus) (UniProt P15823+P23944+P43140); assay: Displacement of [3H]prazosin from Adrenergic alpha-1 receptor in rat cerebral cortex cells at 1 uM; format: cell-based
[12] = Half life in human liver S9 fraction at 5 uM; format: ADME
[13] = Binding affinity to histamine receptor by radioligand binding assay
Cytochrome P450 3A4 = Cytochrome P450 3A4 (Homo sapiens, UniProt P08684); assay: Inhibition of human recombinant cytochrome P450 3A4; format: ADME; conditions: recombinant enzyme
Chain of Cytochrome P450 3A4 (P08684 whole entry): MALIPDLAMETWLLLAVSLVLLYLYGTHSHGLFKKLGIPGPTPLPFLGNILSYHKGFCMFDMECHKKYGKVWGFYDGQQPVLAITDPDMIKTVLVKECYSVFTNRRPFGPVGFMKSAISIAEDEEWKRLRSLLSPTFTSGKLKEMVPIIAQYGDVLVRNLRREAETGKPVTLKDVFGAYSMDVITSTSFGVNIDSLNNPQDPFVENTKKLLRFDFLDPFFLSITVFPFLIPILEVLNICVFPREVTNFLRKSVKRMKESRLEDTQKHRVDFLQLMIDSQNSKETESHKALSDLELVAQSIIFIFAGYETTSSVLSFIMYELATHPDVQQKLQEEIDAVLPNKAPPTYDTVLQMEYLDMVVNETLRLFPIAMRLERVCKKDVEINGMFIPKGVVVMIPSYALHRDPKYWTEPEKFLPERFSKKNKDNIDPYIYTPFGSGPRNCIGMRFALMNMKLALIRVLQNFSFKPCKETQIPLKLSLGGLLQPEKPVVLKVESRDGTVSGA

[14] = target: GABA-A receptor; anion channel; assay: Binding affinity to GABA receptor by radioligand binding assay; format: protein-complex assay
[15] = Protein binding in human serum at 10 uM; format: ADME, organism-based; conditions: read-out: PPB (converted)
hERG (KCNH2) = hERG (KCNH2) (Homo sapiens, UniProt Q12809); assay: Inhibition of hERG potassium channel in HEK293 cells by patch clamp assay at 1 uM; conditions: HEK293 cells that express hERG
Chain of hERG (KCNH2) (Q12809 whole entry): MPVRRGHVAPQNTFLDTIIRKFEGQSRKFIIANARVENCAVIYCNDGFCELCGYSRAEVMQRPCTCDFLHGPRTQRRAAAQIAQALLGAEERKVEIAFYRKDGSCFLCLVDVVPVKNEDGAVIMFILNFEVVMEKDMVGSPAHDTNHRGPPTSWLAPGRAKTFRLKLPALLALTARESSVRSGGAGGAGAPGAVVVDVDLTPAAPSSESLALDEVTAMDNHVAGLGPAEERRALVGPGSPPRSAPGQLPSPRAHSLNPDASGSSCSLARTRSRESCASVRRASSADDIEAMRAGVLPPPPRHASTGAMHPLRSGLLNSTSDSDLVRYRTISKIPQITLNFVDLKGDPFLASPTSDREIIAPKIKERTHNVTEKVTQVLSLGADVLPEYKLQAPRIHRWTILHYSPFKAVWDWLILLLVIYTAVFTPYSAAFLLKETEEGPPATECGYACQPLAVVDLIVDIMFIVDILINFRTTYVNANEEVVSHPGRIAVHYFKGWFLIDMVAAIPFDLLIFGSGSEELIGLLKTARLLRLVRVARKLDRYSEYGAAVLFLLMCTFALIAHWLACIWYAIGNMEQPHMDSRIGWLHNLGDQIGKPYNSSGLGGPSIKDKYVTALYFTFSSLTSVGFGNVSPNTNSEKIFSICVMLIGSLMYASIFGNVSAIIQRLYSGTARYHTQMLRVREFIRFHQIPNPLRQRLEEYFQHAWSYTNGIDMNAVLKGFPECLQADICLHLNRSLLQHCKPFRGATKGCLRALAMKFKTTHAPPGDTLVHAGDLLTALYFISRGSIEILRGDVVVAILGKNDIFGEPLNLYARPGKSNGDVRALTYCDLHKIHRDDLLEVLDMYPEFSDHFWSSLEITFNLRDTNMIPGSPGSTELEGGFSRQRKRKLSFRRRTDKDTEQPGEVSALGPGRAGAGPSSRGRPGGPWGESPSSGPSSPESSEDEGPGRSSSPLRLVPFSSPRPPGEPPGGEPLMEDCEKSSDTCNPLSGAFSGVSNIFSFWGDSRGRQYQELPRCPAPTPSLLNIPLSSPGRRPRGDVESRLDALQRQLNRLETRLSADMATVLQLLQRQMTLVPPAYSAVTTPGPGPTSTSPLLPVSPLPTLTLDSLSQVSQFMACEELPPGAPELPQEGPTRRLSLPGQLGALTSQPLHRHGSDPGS

[16] = Binding affinity to neuropeptide receptor by radioligand binding assay
[17] = Binding affinity to adrenergic alpha receptor by radioligand binding assay
Somatostatin receptor = assay: Binding affinity to somatostatin receptor by radioligand binding assay; format: protein assay
[18] = target: Voltage-gated inwardly rectifying potassium channel KCNH2 (Homo sapiens, UniProt Q12809); assay: Binding affinity to potassium channel by radioligand binding assay
[19] = target: 5-hydroxytryptamine receptor 6 (Homo sapiens, UniProt P50406); assay: Binding affinity to human 5HT6 receptor by radioligand binding assay
Chain of 5-hydroxytryptamine receptor 6 (P50406 whole entry): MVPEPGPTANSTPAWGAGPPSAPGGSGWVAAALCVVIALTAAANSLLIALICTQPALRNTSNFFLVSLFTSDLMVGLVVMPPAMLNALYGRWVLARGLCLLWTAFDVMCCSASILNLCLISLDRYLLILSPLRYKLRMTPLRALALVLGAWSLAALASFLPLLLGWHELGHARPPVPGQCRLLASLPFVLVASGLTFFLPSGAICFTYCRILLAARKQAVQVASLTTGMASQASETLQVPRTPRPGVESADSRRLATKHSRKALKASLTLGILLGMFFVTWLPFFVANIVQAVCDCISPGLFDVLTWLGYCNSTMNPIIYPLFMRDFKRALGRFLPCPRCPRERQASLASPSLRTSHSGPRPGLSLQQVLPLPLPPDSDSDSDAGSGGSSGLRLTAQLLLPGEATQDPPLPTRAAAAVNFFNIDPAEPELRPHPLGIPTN

[20] = Protein binding in human serum at 2 uM; format: ADME, organism-based; conditions: read-out: PPB (converted)
[21] = Binding affinity to vasoactive intestinal peptide receptor by radioligand binding assay
[22] = target: 5-hydroxytryptamine receptor 4 (Homo sapiens, UniProt Q13639); assay: Binding affinity to human 5HT4e receptor by radioligand binding assay
Chain of 5-hydroxytryptamine receptor 4 (Q13639 whole entry): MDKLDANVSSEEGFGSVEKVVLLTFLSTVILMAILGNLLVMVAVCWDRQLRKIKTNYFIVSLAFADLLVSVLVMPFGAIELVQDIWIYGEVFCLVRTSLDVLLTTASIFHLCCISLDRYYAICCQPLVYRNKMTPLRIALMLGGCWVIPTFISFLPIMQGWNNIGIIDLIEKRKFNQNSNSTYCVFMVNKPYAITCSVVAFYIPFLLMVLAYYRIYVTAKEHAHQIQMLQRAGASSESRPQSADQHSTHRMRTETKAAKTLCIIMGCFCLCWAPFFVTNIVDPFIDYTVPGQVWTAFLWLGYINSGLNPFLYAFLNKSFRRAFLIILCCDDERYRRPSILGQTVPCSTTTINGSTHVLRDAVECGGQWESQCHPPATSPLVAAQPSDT

[23] = Cmax in Sprague-Dawley rat at 3 mg/kg, po; format: ADME, organism-based; design: dose 3 mg/kg, route oral; conditions: in vivo
Angiotensin II receptor = Angiotensin II receptor (Homo sapiens, UniProt P30556+P50052); assay: Binding affinity to angiotensin2 receptor by radioligand binding assay; format: protein assay
[24] = target: T2, 5-hydroxytryptamine receptor 1A (Homo sapiens, UniProt P08908); assay: Displacement of [3H]8-OH-DPAT from human 5HT1A receptor in HEK293 cells
T2 sequence (P08908 whole entry): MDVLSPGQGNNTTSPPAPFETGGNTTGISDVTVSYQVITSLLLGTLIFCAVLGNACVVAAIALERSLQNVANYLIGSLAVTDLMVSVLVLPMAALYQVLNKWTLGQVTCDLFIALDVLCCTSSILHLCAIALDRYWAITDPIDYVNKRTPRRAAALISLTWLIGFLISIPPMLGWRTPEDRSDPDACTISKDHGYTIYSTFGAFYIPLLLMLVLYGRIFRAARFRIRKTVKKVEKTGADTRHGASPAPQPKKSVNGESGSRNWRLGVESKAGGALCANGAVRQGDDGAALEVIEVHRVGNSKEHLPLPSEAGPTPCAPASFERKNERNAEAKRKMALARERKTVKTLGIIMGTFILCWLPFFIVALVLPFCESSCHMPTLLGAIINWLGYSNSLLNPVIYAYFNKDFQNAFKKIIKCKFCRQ

[25] = Cmax in Beagle dog at 3 mg/kg, po; format: ADME, organism-based, Canis lupus familiaris; design: dose 3 mg/kg, route oral; conditions: in vivo
[26] = Oral bioavailability in Beagle dog at 3 mg/kg, po and 1 mg/kg, iv; format: ADME, organism-based, Canis lupus familiaris; conditions: in vivo
[27] = target: 5-hydroxytryptamine receptor 1A (Rattus norvegicus, UniProt P19327); assay: Binding affinity to 5HT1A receptor in rat cerebral cortex by radioligand binding assay; format: tissue-based
Chain of 5-hydroxytryptamine receptor 1A (Rattus norvegicus, UniProt P19327) (P19327 whole entry): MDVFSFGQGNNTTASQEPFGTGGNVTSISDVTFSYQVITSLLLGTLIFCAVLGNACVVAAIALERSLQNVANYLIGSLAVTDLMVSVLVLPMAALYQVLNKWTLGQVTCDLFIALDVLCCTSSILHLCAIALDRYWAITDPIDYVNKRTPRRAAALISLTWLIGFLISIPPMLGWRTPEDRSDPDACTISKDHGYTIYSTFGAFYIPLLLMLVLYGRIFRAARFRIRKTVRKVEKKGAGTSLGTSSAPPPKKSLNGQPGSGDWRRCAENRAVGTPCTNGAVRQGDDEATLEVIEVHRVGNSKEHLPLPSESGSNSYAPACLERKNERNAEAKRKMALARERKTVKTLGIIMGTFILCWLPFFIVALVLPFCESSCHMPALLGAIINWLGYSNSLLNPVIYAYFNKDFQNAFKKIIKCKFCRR

[28] = Ratio of drug level in brain against serum in Sprague-Dawley rat at 3 mg/kg, po or 1 mg/kg, iv after 1 hr; format: ADME, organism-based; conditions: read-out: BBR
[29] = Binding affinity to neurokinin receptor by radioligand binding assay
[30] = target: Opioid receptors; mu/kappa/delta (Homo sapiens, UniProt P41145+P41143+P35372); assay: Binding affinity to opioid receptor by radioligand binding assay; format: protein assay
[31] = target: Serotonin 3 receptor (5HT3) (Mus musculus, UniProt Q9JHJ5+P23979); assay: Binding affinity to mouse 5HT3 receptor by radioligand binding assay; format: protein assay

## CC(=O)Nc1cccc(N2CCN(CCCCNS(=O)(=O)CC3CCCCC3)CC2)c1 [NALUZOTAN]
Dopamine receptor
  Ki: > 2000 nM
[1]
  Ki: > 2000 nM
[2]
  half-life at 5 µM: 0.467 h
[3]
  Activity: 0%
[4]
  Ki: > 2000 nM
[5]
  Ki: > 2000 nM
Cholecystokinin receptor
  Ki: > 2000 nM
Cytochrome P450 1A2
  Inhibition: Not Active
[6]
  half-life: 2 h
[7]
  half-life: 1.1 h
Homo sapiens
  Activity: Active
[8]
  Ki: > 5000 nM
[9]
  Ki: > 10000 nM
Cytochrome P450 2C9
  Inhibition: Not Active
Mus musculus
  Activity: Active
[10]
  half-life: > 10 h
[11]
  Activity: 47%
[12]
  half-life at 5 µM: 1.08 h
[13]
  Ki: > 2000 nM
Cytochrome P450 3A4
  Inhibition: Not Active
[14]
  Ki: > 2000 nM
[15]
  fraction unbound at 10 µM: 0.08
hERG (KCNH2)
  inhibition at 1 µM: 21%
[16]
  Ki: > 2000 nM
[17]
  Ki: > 2000 nM
Somatostatin receptor
  Ki: > 2000 nM
[18]
  Ki: > 2000 nM
[19]
  Ki: > 5000 nM
[20]
  fraction unbound at 2 µM: 0.08
[21]
  Ki: > 2000 nM
[22]
  Ki: > 5000 nM
[23]
  Cmax: 24 ng/mL
Angiotensin II receptor
  Ki: > 2000 nM
[24]
  Ki: 5.1 nM
[25]
  Cmax: 174 ng/mL
[26]
  bioavailability: 16%
[27]
  Ki: 17 nM
[28]
  Kp at 1 h: 0.5
[29]
  Ki: > 2000 nM
[30]
  Ki: > 2000 nM
[31]
  Ki: > 5000 nM
